Series [1] can be described thus: Binding affinity to DENV RNA-dependent RNA polymerase assessed as dissociation constant. On the set-up: species or system Dengue virus.
Series [2] deals with dengue virus type 2. The series can be described thus: Antiviral activity against DENV-2. The class given is functional, organism-based.
Series [3] in a line: Binding affinity to DENV-2 RNA-dependent RNA polymerase assessed as dissociation constant using GTP as substrate. Further details: species or system dengue virus type 2.
Series [4] in a line: Toxicity in rat assessed as animal survival at 15 to 30 mg/kg, iv measured for 7 days. The class given is organism-based. The settings on record: in vivo, dose 15-30 mg/kg, time 7 day, read-out: Activity.
In series [5] the test system is dengue virus type 3. Briefly: Antiviral activity against DENV-3 RNA-dependent RNA polymerase infected in African green monkey Vero cells assessed as reduction in viral replication incubated for 2 days by qRT-PCR analysis. Format: functional, organism-based. The settings on record: 48 h.
The nature of series [6]: Inhibition of DENV RNA-dependent RNA polymerase activity. On the set-up: species or system Dengue virus.
The nature of series [7]: Inhibition of DENV RNA polymerase. On the set-up: species or system Dengue virus.
Series [8] concerns dengue virus type 2. The series can be described thus: Antiviral activity against DENV-2 RNA-dependent RNA polymerase infected in African green monkey Vero cells assessed as reduction in viral replication incubated for 2 days by qRT-PCR analysis. The settings on record: 48 h. Format: functional, organism-based.
Series [9] deals with dengue virus type 1. The series can be described thus: Antiviral activity against DENV-1 RNA-dependent RNA polymerase infected in African green monkey Vero cells assessed as reduction in viral replication incubated for 2 days by qRT-PCR analysis. The class given is functional, organism-based. Conditions: 48 h. A general note: Real-time PCR tracks product formation cycle by cycle.

The subject of series [10] is dengue virus type 4. The series can be described thus: Antiviral activity against DENV-4 RNA-dependent RNA polymerase infected in African green monkey Vero cells assessed as reduction in viral replication incubated for 2 days by qRT-PCR analysis. The class given is functional, organism-based. Conditions: 48 h.
Series [11] in a line: Inhibition of Zika virus RNA N7 methyltransferase.
Series [12] can be described thus: Inhibition of Dengue virus RNA N7 methyltransferase.
In series [13] the test system is Dengue virus. The series can be described thus: Antiviral activity DENV infected in African green monkey Vero 76 cells assessed as virus-induced cytopathic effect. Format: functional, organism-based. (Damage to the host cells serves as the signal in cytopathic effect assays.)
The subject of series [14] is dengue virus type 2. The series can be described thus: Antiviral activity against DENV-2 RNA-dependent RNA polymerase. Format: functional, organism-based.
Series [15] has as its system HepG2. Briefly: Cytotoxicity against human HepG2 cells.
In series [16] the test system is THP-1. Briefly: Cytotoxicity against human THP-1 cells.
In series [17] the test system is Dengue virus. Briefly: Antiviral activity against DENV. The class given is functional, organism-based.
In series [18] the test system is Zika virus. Briefly: Antiviral activity against Zika virus. Format: functional, organism-based.
In series [19] the target is NS5 (Zika virus, UniProt A0A143MHK7). Briefly: Inhibition of Zika virus RNA-dependent RNA polymerase.
The subject of series [20] is dengue virus type 2. The series can be described thus: Antiviral activity against DENV-2 incubated for 72 hrs by MTT assay. The class given is functional, organism-based. (Tetrazolium assays rely on reduction of a dye to a coloured formazan, in cell work by metabolically active cells.)
Series [21] concerns Zika virus. The series can be described thus: Antiviral activity against Zika virus RNA-dependent RNA polymerase infected in African green monkey Vero cells. The class given is functional, organism-based.
Series [22] in a line: Selectivity index, ratio of CC50 for cytotoxicity against African green monkey Vero cells to EC50 for antiviral activity against Zika virus RNA-dependent RNA polymerase infected in African green monkey Vero cells. The class given is toxicity, cell-based. Conditions: read-out: Ratio CC50/EC50.
The nature of series [23]: Cytotoxicity against African green monkey Vero cells incubated for 4 hrs by Cell-titer glo assay. Format: toxicity, cell-based. The settings on record: chlorocebus sabaeus.
The test system of series [24] is dengue virus type 3. Briefly: Antiviral activity against DENV-3 infected hamster BHK-21 cells assessed as reduction in viral replication incubated for 4 hrs. The class given is functional, organism-based.
The test system of series [25] is dengue virus type 2. Briefly: Antiviral activity against DENV-2 infected hamster BHK-21 cells assessed as reduction in viral replication incubated for 4 hrs. The class given is functional, organism-based.
In series [26] the test system is dengue virus type 4. Briefly: Antiviral activity against DENV-4 infected hamster BHK-21 cells assessed as reduction in viral replication incubated for 4 hrs. The class given is functional, organism-based.
Series [27] deals with dengue virus type 1. Briefly: Antiviral activity against DENV-1 infected hamster BHK-21 cells assessed as reduction in viral replication incubated for 4 hrs. The class given is functional, organism-based.
Series [28] concerns Dengue virus. The series can be described thus: Antiviral activity against DENV RNA-dependent RNA polymerase infected in human PBMC. Format: functional, organism-based.
Series [29] concerns dengue virus type 2. The series can be described thus: Antiviral activity against DENV-2 NS5 infected in African green monkey Vero cells. Format: functional, organism-based.
For series [30], the system named is dengue virus type 1. The series can be described thus: Antiviral activity against DENV-1 NS5 infected in African green monkey Vero cells. The class given is functional, organism-based.
Series [31] can be described thus: Inhibition of DENV-3 full length NS5/RNA-dependent RNA polymerase. On the set-up: species or system dengue virus type 3.
Series [32] concerns dengue virus type 3. Briefly: Antiviral activity against DENV-3 NS5 infected in African green monkey Vero cells. Format: functional, organism-based.

We go through 12 compounds from ChEMBL document CHEMBL5150000, “Insights on Dengue and Zika NS5 RNA-dependent RNA polymerase (RdRp) inhibitors” (Eur J Med Chem, 2021).

Chain of NS5 (A0A143MHK7 whole entry): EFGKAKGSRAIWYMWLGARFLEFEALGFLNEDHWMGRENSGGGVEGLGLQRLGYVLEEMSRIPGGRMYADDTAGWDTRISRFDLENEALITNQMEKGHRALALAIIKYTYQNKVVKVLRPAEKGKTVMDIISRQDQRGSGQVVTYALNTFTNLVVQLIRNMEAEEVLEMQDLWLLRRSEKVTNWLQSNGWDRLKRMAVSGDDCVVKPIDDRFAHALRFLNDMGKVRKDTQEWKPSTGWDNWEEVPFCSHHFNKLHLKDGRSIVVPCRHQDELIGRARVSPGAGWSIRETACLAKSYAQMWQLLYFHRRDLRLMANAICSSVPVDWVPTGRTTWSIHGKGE

What is called Kd is a measure of binding affinity in units of concentration. In the case of `Cc1ccc(C2N(c3ccccc3)CC3=C(CC(C)(C)CC3=O)N2c2ccccc2)cc1` (configuration not stated), the Kd in series [1] was 900 nM.

As a reminder, the EC50 is the concentration that produces a half-maximal response. In [2], `CN1CCN(c2ccc(C(=O)Nc3n[nH]c4ccc(Cc5cc(F)cc(F)c5)cc34)c(NC3CCOCC3)c2)CC1` [ENTRECTINIB] yielded an EC50 of 2430 nM. Besides, the Kd in [3] amounted to 166000 nM.

The term IC50 denotes the concentration needed to halve the response being measured. Take `C[C@@]1(O)[C@H](O)[C@@H](CO)O[C@H]1n1ccc(N)nc1=O`: in series [4], the survival at 168 h was determined as 60%. The EC50 in series [5] was 2400 nM; in [8], 2800 nM; in [9] it was 2900 nM; in series [10], 2600 nM. In addition, the IC50 was found to be 19300 nM in series [6] and 11200 nM in series [7].

As for `COc1nc(N)ncc1-c1cn(COCCO)cn1`, the IC50 was 1700 nM in series [11] and 8400 nM in series [12]. The EC50 in series [13] amounted to 57 nM.

Take `CNC1CN(c2c(F)c(N)c3c(=O)c(C(=O)O)cn(C4CC4)c3c2Cl)CC1OC` (configuration not stated): the midpoint of the response in [14], the EC50, lay at 3900 nM.

The CC50 is the concentration at which the toxic effect on the cells reaches its halfway point. As to `OC[C@H]1O[C@@H](n2c3ccc(Cl)cc3c3c(-c4ccco4)ncnc32)[C@H](O)[C@@H]1O`, the CC50 in series [15] was 170 nM; in [16], 1560 nM.

Take `Nc1ncnc2c1c(-c1cc3ccccc3o1)cn2[C@@H]1O[C@H](CO)[C@@H](O)[C@H]1O`: the EC50 in series [17] was found to be 13000 nM; in [18] it was 2200 nM. Moreover, the IC50 in series [19] was 500 nM.

In series [20], `CN[C@@H]1CC[C@@H]2CN(c3c(F)c(N)c4c(=O)c(C(=O)O)cn(C5CC5)c4c3F)C[C@@H]21` returned an EC50 of 9200 nM.

Regarding `O=C(NC(=S)Nc1ccc(N2CCN(C(=O)c3cccs3)CC2)cc1)c1sc2ccccc2c1Cl`, the response in series [21] was half-maximal at 94 nM (EC50). In addition, the selectivity ratio in series [22] came to 206. Besides, it took 19400 nM to reach half-maximal cytotoxicity in series [23] (CC50 at 4 h).

Take IVERMECTIN: the IC50 is 1660 nM in [24], 2080 nM in series [25], 1900 nM in [26] and 2320 nM in series [27].

In series [28], `C#C[C@]1(O)[C@H](n2ccc(=O)[nH]c2=O)O[C@](F)(CO[P@](=O)(N[C@@H](C)C(=O)OC(C)C)Oc2ccccc2)[C@H]1O` had an EC50 of 370 nM.

With `CC(=O)Oc1ccc2oc(=O)sc2c1`, the results for the EC50 in series [29], in series [30] and in [32] were 6000 nM, 29500 nM and 29400 nM, respectively. The same compound registered an IC50 in series [31] of 287000 nM.
